Measured values taken from publication PMC5078025, “Necrosis-inducing peptide has the beneficial effect on killing tumor cells through neuropilin (NRP-1) targeting” (Oncotarget, 2016).
Bridge positions count the residues as written; N and C are the ends. Ends that are not written are not given here.

How the values were obtained:
CT26 cells = experiment: XTT cell viability / killing activity in CT26 cells; assay type: cell-based; settings: CT26 cells in vitro, TU:MTDs 0 ~ 20 μM, 30 minutes
Protocol: Figure 1 Identification of TU17:MTD as a tumor targeting peptide (A) Schematic diagram of the fusion peptides consisting of the tumor-homing motif, linker, and mitochondrial targeting domain (MTD). (B) Tumors were generated over 2 weeks after s.c. injection of CT26 cells into the backs of BALB/c mice. When tumor volumes reached palpable size, the indicated TU:MTDs (100 μl of 1 mM TU:MTDs) or PBS were administrated i.v. twice or three times. […] Arrows indicate the points of peptide injection. P values < 0.02 (control group vs TU17:MTD at day 5, 6, 7, 8, and 9) (C) HCT116, HeLa, A549, MCF-7, PC3, and BJAB cells were treated with TU17:MTD (0 ~ 20 μM) for 30 minutes, and cell viability was monitored using XTT assays. *P < 0.05 (D) Primary splenocytes and macrophages were treated with TU17:MTD (0 ~ 20 μM) for 30 minutes, and cell viability was monitored by XTT assay. *P < 0.05 (E) CT26 cells were treated with R8:MTD, TU17:MTD, TU17-2:MTD or TU17:MTD^4A (0 ~ 40 μM) for 4 hours, and cell viability was monitored by XTT assay. Results in C to E are expressed as means ± SD (triplicates), and are representative of at least two independent experiments. P values are for experimental groups versus controls and were calculated using Dunnett's t-test. *P < 0.05.
Figure 5 Anti-NRP-1 antibody blocks TU17:MTD-induced necrosis (A) CT26 cells (2 × 10^4 cells/cm^2) were treated with TU17:MTD-FAM (500 nM) peptide or TU17^mut:MTD (500 nM) peptide. […] The viability was measured by using the XTT assay. *P < 0.05, **P < 0.01. […] The percentage of FAM-positive cells (%) were determined (n = over 200 cells). *P < 0.05, ***P < 0.001.
Cells were cultured in 96 well plates (2 × 10^5) overnight and treated with TU:MTDs. Cell viabilities were assessed using a XTT-based colorimetric assay kit, according to the manufacturer's instructions. […]
Supplementary FigureS1: Killing activity of TU:MTDs in CT26 cells. CT26 cells were treated with TU:MTDs (0 ~ 20 μM) for 30 minutes, and cell viability was monitored using XTT assays. […]

BALB/c mice = experiment: Toxicity and movement activity after i.v. injection; settings: for Movement Activities: BALB/c (around 20 gm) mice, i.v. single dose 75 μl of 1 mM, within 30 minutes; for toxicity by mouse movements: BALB/c mice, i.v. single dose 75 μl of 1 mM per mouse, movements within 30 minutes, observed up to one week
Protocol: To design a MTD peptide anti-cancer drug, the MTD peptide was fused to various known tumor-homing motifs through its N-terminal or C-terminal region, and a linker was introduced between these two motifs to impart flexibility and minimize steric hindrance (Figure 1A, Supplementary Table S1). The MTD peptides fused with tumor-homing motifs (hereafter designated TU:MTDs) were synthesized as linear or cyclic entities using L-amino acids (Supplementary Table S1), and were evaluated for their killing activity using CT26 cells in vitro (Supplementary Figure S1). […] Thus, BALB/c mouse movements were also evaluated within 30 minutes of the intravenous injection of a single dose of 75 μl of 1 mM TU:MTDs per mouse. […] We also searched for a TU:MTD with a potent in vivo effect by observing tumor volumes in three BALB/c mice bearing CT26 adenocarcinoma that were injected with 100 μl of 1 mM TU:MTDs per day for 2 or 3 consecutive days (Figure 1B). […] The tumor-homing motif of TU17:MTD has a “RPARPAR” sequence containing the C-end rule (CendR) element that has known to bind to neuropilin-1 (NRP-1), although the “RPARPAR” sequence is located at the N-terminus of the MTD rather than at the C-terminus. […]
1 mM) were i.v. injected into BALB/c (around 20 gm) mice at a single dose. “Slow” means not moving around in the cage.
“Normal” means normally moving around in the cage. “Toxic” means necrosis in tail vein within 2 ~ 3 days after injection.
Abbreviation: NR; no regression, ND; not determined. […]

Sequence | morphological features of necrosis (CT26 cells) | Movement Activities (BALB/c mice) | toxicity by mouse movements (BALB/c mice)
KLLNLISKLFCRGDKRLYDC (disulfide 11-20 (inferred)) [TU11:MTD] | induced the typical morphological features of necrosis | Slow | toxic
CNGRCVSGCAGRCGGKLLNLISKLF [TU2:MTD] | induced the typical morphological features of necrosis | Normal | no apparent toxicities
